Results taken from patent publication US20250170266A1 (ZYMEWORKS BC INC., priority 2022, published 2025).
pEC50: −log10 of the molar value. Where two headings read alike, the source gives them in different places.

Tests used:
Format in all cases: cell-based
Mouse splenocytes = assay: Mouse Splenocyte Assay, cytokine release (HTRF); conditions: Splenocyte, 24 hours, mIL6 in supernatant, read-out: Splenocyte IL6 EC50
Procedure, shortened: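 Splenocytes from female balb/c nude mice, thawed, 100,000 per well in RPMI + 10% FBS. Exposed for 24 h at 37 °C to a 4-fold 11-point compound titration from 15 μM; supernatant mIL6 and mTNFα measured by HTRF.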

mTLR7 = target: T1, mTLR7 (Mus musculus, UniProt P58681); assay: Reporter Gene Assay (RGA), HEK-Blue mTLR7 reporter cells, SEAP readout; conditions: overnight incubation, SEAP absorbance 620 nm
T1 construct: host or cells: HEK-Blue mTLR7 reporter cells (HEK293-derived, own knowledge)
T1 sequence (P58681 27-1050): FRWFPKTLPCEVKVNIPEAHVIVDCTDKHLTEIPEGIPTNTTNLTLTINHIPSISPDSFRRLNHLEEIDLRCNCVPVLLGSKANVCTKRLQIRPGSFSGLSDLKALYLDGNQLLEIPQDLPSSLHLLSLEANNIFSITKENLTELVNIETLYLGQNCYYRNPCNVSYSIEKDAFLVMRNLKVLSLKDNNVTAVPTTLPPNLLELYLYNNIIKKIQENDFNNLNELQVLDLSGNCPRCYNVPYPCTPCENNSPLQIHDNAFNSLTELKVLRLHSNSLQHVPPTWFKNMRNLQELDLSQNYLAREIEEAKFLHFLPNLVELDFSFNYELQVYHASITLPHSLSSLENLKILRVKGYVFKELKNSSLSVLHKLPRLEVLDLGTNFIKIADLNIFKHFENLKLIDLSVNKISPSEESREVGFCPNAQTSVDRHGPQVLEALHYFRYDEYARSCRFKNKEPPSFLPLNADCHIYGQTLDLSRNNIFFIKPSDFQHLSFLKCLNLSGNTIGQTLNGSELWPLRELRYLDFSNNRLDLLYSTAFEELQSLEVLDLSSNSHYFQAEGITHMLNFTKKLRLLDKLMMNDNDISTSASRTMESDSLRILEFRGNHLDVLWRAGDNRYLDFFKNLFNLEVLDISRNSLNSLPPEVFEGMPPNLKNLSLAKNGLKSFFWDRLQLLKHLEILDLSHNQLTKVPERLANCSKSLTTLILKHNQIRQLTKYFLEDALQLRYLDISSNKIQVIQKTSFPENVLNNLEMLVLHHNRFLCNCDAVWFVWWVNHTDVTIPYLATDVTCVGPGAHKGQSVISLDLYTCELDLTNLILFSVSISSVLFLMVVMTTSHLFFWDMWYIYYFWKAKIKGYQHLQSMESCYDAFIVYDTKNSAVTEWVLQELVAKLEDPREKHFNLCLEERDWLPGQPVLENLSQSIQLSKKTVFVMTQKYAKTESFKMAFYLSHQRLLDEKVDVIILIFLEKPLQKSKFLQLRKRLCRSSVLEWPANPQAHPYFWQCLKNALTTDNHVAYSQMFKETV
Procedure, shortened: (§1)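 HEK-Blue reporter cells expressing human or mouse TLR7 (1.5×10^4 cells) were treated with an 11-point, 4-fold compound titration from 15 pM in HEK-Blue Detection medium. Incubation was overnight at 37° C with 5% CO2. Secreted embryonic alkaline phosphatase was read as absorbance at 620 nm.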

[1] = tested on: Human peripheral blood mononuclear cells (PBMCs); assay: Human PBMC Assay, cytokine release (HTRF); conditions: PBMC, 24 hours
Procedure, shortened: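 Cryopreserved human PBMCs, rested overnight with 10 ng/ml hIL3, then 300,000 cells/well treated 24 h at 37° C with compound (4-fold, 11-point titration from 15 μM) in RPMI+10% FBS. Supernatant hIL6, hTNFα and hIFNα measured by HTRF; growth medium as negative control.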

hTLR7 = target: T2, hTLR7 (Homo sapiens, UniProt Q9NYK1); assay: Reporter Gene Assay (RGA), HEK-Blue hTLR7 reporter cells, SEAP readout; conditions: overnight incubation, SEAP absorbance 620 nm
T2 construct: host or cells: HEK-Blue hTLR7 reporter cells (HEK293-derived, own knowledge)
T2 sequence (Q9NYK1 27-1049): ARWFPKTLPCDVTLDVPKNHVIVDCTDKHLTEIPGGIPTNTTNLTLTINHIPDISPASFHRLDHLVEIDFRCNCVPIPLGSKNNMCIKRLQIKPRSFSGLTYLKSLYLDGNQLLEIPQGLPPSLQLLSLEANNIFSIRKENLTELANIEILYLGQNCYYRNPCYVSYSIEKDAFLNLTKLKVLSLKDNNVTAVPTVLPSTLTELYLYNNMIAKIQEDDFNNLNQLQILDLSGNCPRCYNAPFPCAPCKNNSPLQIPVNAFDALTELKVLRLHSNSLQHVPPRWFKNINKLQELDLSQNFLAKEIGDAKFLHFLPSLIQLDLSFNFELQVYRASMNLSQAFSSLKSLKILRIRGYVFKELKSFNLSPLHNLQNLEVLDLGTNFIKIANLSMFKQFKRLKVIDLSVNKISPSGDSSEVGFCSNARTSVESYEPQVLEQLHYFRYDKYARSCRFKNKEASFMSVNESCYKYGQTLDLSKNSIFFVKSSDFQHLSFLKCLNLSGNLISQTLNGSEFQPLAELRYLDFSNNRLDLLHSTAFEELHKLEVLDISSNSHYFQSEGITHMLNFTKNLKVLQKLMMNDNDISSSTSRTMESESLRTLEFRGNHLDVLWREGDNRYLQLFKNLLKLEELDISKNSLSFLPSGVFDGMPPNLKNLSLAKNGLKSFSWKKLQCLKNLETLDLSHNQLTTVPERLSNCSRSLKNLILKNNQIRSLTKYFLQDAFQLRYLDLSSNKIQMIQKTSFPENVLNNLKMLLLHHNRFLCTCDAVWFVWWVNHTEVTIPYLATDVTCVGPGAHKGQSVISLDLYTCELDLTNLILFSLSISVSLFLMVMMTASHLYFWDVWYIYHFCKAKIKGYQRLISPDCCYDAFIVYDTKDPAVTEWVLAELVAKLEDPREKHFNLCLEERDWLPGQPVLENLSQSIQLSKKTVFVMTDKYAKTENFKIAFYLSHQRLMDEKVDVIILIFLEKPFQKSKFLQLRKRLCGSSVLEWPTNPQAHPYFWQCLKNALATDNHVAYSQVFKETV
Procedure, shortened: as §1

[2] = hIFNα in supernatant, EC50 values approximated and divided into groups, read-out: PBMC IFNa EC50
[3] = hIL6 in supernatant, read-out: PBMC IL6 EC50

pEC50 (Mouse splenocytes)	pEC50 (mTLR7)	pEC50 (hTLR7)	Compound	pEC50 [1, 2]	pEC50 [1, 3]
5.69	7.03	6.46	CCOc1nc(N)c2nc(O)n(Cc3ccc(CNCCCCN)cc3OC)c2n1 [Compound 106, 6-amino-9-(4-(((4-aminobutyl)amino)methyl)-2-methoxybenzyl)-2-ethoxy-9H-purin-8-ol]	8.00 to 9.00	6.16
6.75	7.46	8.17	CCOc1nc(N)c2nc(O)n(Cc3ccc(CN4CCC(CCN)CC4)cc3OC)c2n1 [Compound 140, 6-amino-9-(4-((4-(2-aminoethyl)piperidin-1-yl)methyl)-2-methoxybenzyl)-2-ethoxy-9H-purin-8-ol]	< 8.00	7.27
6.73	6.61	7.76	CCOc1nc(N)c2nc(O)n(Cc3ccc(CN4CCC(C5CCNCC5)CC4)cc3OC)c2n1 [Compound 138, 9-(4-([4,4′-bipiperidin]-1-ylmethyl)-2-methoxybenzyl)-6-amino-2-ethoxy-9H-purin-8-ol]	< 8.00	6.89
5.67	7.08	8.16	CCOc1nc(N)c2nc(O)n(Cc3ccc(CN4CCNCC4)cc3)c2n1 [Compound 150, 6-amino-2-ethoxy-9-(4-(piperazin-1-ylmethyl)benzyl)-9H-purin-8-ol]	9.00 to 10.00	6.49
7.09	7.39	6.16	CCCCCNc1nc(N)c2nc(O)n(Cc3ccc(CNCCN)cc3)c2n1 [Compound 189, 6-amino-9-(4-(((2-aminoethyl)amino)methyl)benzyl)-2-(pentylamino)-9H-purin-8-ol]	8.00 to 9.00	6.82
8.02	7.82	9.70	CCOc1nc(N)c2nc(O)n(Cc3ccc(CNCc4ccc(CN5CCC(NC(=O)OC(C)(C)C)CC5)cc4)cc3OC)c2n1 [Compound 143, tert-butyl-(1-(4-(((4-((6-amino-2-ethoxy-8-hydroxy-9H-purin-9-yl)methyl)-3-methoxybenzyl)amino)methyl)benzyl)piperidin-4-yl)carbamate]	> 10.00	7.57
6.00	6.89	5.76	CCCCCNc1nc(N)c2nc(O)n(Cc3ccc(CNCCN4CCNCC4)cc3)c2n1 [Compound 195, 6-amino-2-(pentylamino)-9-(4-(((2-(piperazin-1-yl)ethyl)amino)methyl)-benzyl)-9H-purin-8-ol]	–	6.10
6.77	7.02	8.19	CCOc1nc(N)c2nc(O)n(Cc3ccc(CN4CCC5(CCNCC5)CC4)cc3OC)c2n1 [Compound 139, 9-(4-((3,9-diazaspiro[5.5]undecan-3-yl)methyl)-2-methoxybenzyl)-6-amino-2-ethoxy-9H-purin-8-ol]	< 8.00	6.94
≤ 6.00	6.11	6.47	CCOc1nc(N)c2nc(O)n(Cc3ccc(CN[C@H](C(=O)O)[C@@H](C)CC)cc3OC)c2n1 [Compound 121, (4-((6-amino-2-ethoxy-8-hydroxy-9H-purin-9-yl)methyl)-3-methoxybenzyl)-L-isoleucine]	< 8.00	4.87
5.49	5.80	6.56	CCOc1nc(N)c2nc(O)n(Cc3ccc(CNCCCCCC(=O)O)cc3OC)c2n1 [Compound 115, 6-((4-((6-amino-2-ethoxy-8-hydroxy-9H-purin-9-yl)methyl)-3-methoxybenzyl)-amino)hexanoic Acid]	< 8.00	5.55
6.13	7.47	8.27	CCNCc1ccc(Cn2c(O)nc3c(N)nc(OCC)nc32)c(OC)c1 [Compound 124, 6-amino-2-ethoxy-9-(4-((ethylamino)methyl)-2-methoxybenzyl)-9H-purin-8-ol]	9.00 to 10.00	6.17
6.05	5.82	6.58	CCOc1nc(N)c2nc(O)n(Cc3ccc(CNCCCC[C@H](N)C(=O)O)cc3OC)c2n1 [Compound 114, N^6-(4-((6-amino-2-ethoxy-8-hydroxy-9H-purin-9-yl)methyl)-3-methoxybenzyl)-L-lysine]	< 8.00	5.76
7.68	7.06	6.99	CCOc1nc(N)c2nc(O)n(Cc3ccc(CNCCN)cc3OC)c2n1 [Compound 111, 6-amino-9-(4-(((2-aminoethyl)amino)methyl)-2-methoxybenzyl)-2-ethoxy-9H-purin-8-ol]	8.00 to 9.00	6.27
7.18	7.99	8.05	CCOc1nc(N)c2nc(O)n(Cc3ccc(CN[C@H](CO)[C@@H](C)CC)cc3OC)c2n1 [Compound 122, 6-amino-2-ethoxy-9-(4-((((2S,3S)-1-hydroxy-3-methylpentan-2-yl)amino)-methyl)-2-methoxybenzyl)-9H-purin-8-ol]	9.00 to 10.00	6.55
7.32	8.23	7.22	CCOc1nc(N)c2nc(O)n(Cc3ccc(CNCc4cccnc4)cc3OC)c2n1 [Compound 193]	9.00 to 10.00	6.96
7.89	7.54	8.24	CCOc1nc(N)c2nc(O)n(Cc3ccc(CNCc4ccc(CNCc5ccc(CN)cc5)cc4)cc3OC)c2n1 [Compound 146, 6-amino-9-(4-(((4-(((4-(aminomethyl)benzyl)amino)methyl)benzyl)amino)-methyl)-2-methoxybenzyl)-2-ethoxy-9H-purin-8-ol]	> 10.00	7.78

Compound	pEC50 (Mouse splenocytes)	pEC50 (mTLR7)	pEC50 (hTLR7)	pEC50 [1, 2]	pEC50 [1, 3]
CCCCOc1nc(N)c2nc(O)n(Cc3ccc(N4CCC5(CCNCC5)CC4)cc3OC)c2n1 [Compound 171, 6-amino-2-butoxy-9-(2-methoxy-4-(3,9-diazaspiro[5.5]undecan-3-yl)benzyl)-9H-purin-8-ol]	8.05	8.96	> 10.00	< 8.00	5.81
